Data published in patent US20220251095A1, “TRICYCLIC COMPOUND, PREPARATION METHOD THEREFOR AND USE THEREOF” (SHANGHAI JEMINCARE PHARMACEUTICALS CO., LTD., priority 2019, published 2022).

Target: T1, coagulation factor XIa protease (FXIa) (Homo sapiens, UniProt P03951)
T1 construct: purchased Abcam ab62411
Assay: Inhibition of coagulation factor XIa (FXIa), chromogenic substrate, absorbance at 405
Type: biochemical
Conditions: FXIa 0.05 μg/mL, substrate 2.5 mM, 37° C. 15 minutes
Description: Coagulation factor XIa protease (FXIa) decomposed the specific substrate to produce yellow p-nitroaniline (pNA), pNA had strong absorption at 405 nm. The inhibitory activity of the compounds on coagulation factor XIa was determined by assaying the absorbance of the compounds at […].
The coagulation factor XIa protease used in the experiment was purchased from Abcam Company, Item No. ab62411; the coagulation factor XIa-specific substrate was purchased from HYPHEN BioMed, Item No. Biophen cs-21 (66); tris-HCl was purchased from Invitrogen, Item No. 15567-027; NaCl was purchased from ABCONE, Item No. S39168; Twain 20 was purchased from Amersco, Item No. 0777-1L.
(§1) The compounds were dissolved in 100% DMSO, 20 mM, and stored at room temperature in a nitrogen cabinet.
a. 20 mM of the tested compound was diluted to 2 mM using 100% DMSO, and the reference compound was diluted to 0.4 mM; the compound was continuously diluted with a 3-fold gradient at 10 concentration points using a Bravo liquid workstation.
b. The ECHO liquid workstation was used to transfer 10 nL of compound to the corresponding 384-well experimental plate with double replicate wells; the final concentrations of compound reactions were 1000, 333.3, 111.1, 37.0, 12.3, 4.1, 1.37, 0.46, 0.15, and 0.05 nM. The final concentrations of reference compounds were 200, 66.7, 22.2, 7.4, 2.47, 0.82, 0.27, 0.09, 0.03, 0.01 nM.
c. 10 nL DMSO and 10 nL 0.4 mM reference compounds were transferred to high signal control pores and low signal control pores respectively.
d. 0.1 μg/mL FXIa enzyme solution was prepared with buffer solution, and 10 μL enzyme solution was added to 384-well experimental plate, 5 mM substrate solution was prepared using buffer solution, and […] substrate solution was added to a 384-well experimental plate. The final concentration of FXIa was 0.05 μg/mL and the final concentration of the substrate was 2.5 mM.
e. The 384-hole experimental plate was centrifuged and incubated at 37° C. for 15 minutes.
f. The absorbance was measured at 405 nm using EnVision.

T1 sequence (P03951 388-625 limits assumed): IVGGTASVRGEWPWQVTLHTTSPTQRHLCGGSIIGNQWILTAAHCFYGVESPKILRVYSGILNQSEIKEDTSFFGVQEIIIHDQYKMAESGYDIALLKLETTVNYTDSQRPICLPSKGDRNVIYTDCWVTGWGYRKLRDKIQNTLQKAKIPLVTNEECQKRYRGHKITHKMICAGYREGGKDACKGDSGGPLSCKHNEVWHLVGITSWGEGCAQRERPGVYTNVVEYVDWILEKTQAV
T1 sequence (P03951 19-387 partner limits assumed): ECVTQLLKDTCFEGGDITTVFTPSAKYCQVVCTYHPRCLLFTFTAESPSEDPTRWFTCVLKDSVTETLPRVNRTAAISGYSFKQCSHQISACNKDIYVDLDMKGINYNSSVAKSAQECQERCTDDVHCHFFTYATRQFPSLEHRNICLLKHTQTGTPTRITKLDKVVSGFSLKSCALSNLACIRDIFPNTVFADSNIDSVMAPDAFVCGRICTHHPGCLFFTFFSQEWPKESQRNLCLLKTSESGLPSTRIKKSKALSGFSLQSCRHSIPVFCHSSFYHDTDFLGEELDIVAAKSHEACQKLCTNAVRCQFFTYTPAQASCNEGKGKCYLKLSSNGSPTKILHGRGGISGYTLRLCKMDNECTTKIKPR

IC50 [nM]	SMILES
6.33	O=C1CCc2c(ccc(-c3cnc([C@@H]4[C@H]5C[C@H]5c5nc(-c6cc(Cl)ccc6-n6cc(Cl)nn6)cc(=O)n54)[nH]3)c2F)N1 [Embodiment 90]
3.34	Nc1ccc(-c2nc(F)c([C@@H]3[C@H]4C[C@H]4c4cc(-c5cc(Cl)ccc5-n5cnnn5)cc(=O)n43)[nH]2)c(F)n1 [Embodiment 36]
1.41	Nc1n[nH]c2cc(-c3[nH]c([C@@H]4[C@H]5C[C@H]5c5cc(-c6cc(Cl)ccc6-n6cc(C(F)(F)F)nn6)cc(=O)n54)nc3F)ccc12 [Embodiment 78]
0.5	Nc1noc2cc(-c3[nH]c([C@@H]4[C@H]5C[C@H]5c5cc(-c6cc(Cl)ccc6-n6cnnn6)cc(=O)n54)nc3F)ccc12 [Embodiment 29]
3.93	Nc1ccc(-c2[nH]c([C@@H]3[C@H]4C[C@H]4c4cc(-c5cc(Cl)ccc5-n5cnnn5)cc(=O)n43)nc2F)c(F)c1F [Embodiment 48]
4.84	Nc1n[nH]c2cc(-c3cnc([C@@H]4[C@H]5C[C@H]5c5cc(-c6cc(Cl)ccc6-n6cc(C(F)F)nn6)cc(=O)n54)[nH]3)ccc12 [Embodiment 82]
4.74	O=C1CCc2cc(-c3cnc([C@@H]4[C@H]5C[C@H]5c5cc(-c6cc(Cl)ccc6-n6cnnn6)cc(=O)n54)[nH]3)ccc2N1 [Embodiment 16]

Tested on: human plasma
Assay: Anticoagulant effect on human blood in vitro (APTT clotting time, CT2.0)
Conditions: final concentration of compound corresponding to aPTT of the 2-fold blank control
Description: Activated partial thromboplastin time (APTT) measurement reagent was mixed with plasma and the reaction was carried out continuously resulting in a change in optical density up to the clotting point, and the clotting time (CT) was measured by optical turbidimetry using a semi-automatic coagulation analyzer. The in vitro anticoagulant activity of compounds on human blood was determined by detecting the clotting time of plasma treated with different concentrations of compounds, and the corresponding concentration of compounds prolonging clotting time was calculated.
Human plasma used in the experiment was purchased from HD Biosciences (Shanghai) Co., Ltd.; Activated partial thromboplastin time determination kit was purchased from Taizhou Zhongqin Shidi Biotechnology Co., Ltd., Item No. SS00220005.
as §1
a. The NaCl reagent in the kit was incubated half an hour in advance, and the APTT reagent was balanced to room temperature.
b. The compound was continuously diluted at 14 concentration points using a Bravo liquid workstation with a 2-fold gradient.
c. 0.75 μL of the compound was added to the measuring cup, double-replicate wells; 50 μL of plasma was added and 50 μL of APTT reagent was added, the mixture was mixed well and put into coagulation analyzer for incubation at 37° C. for 3 minutes.
d. APTT assay was started, 50 μL of NaCl was added to start the reaction, and the clotting time was counted.
e. Control clotting time was measured using 100% DMSO instead of the compound, and the final concentration of DMSO was 0.5%.
Data were curve-fitted using Graphpad Prism to calculate CT2.0, the final concentration of compound corresponding to aPTT of the 2-fold blank control was calculated.

SMILES	CT2.0 [µM]
O=C1CCc2c(ccc(-c3cnc([C@@H]4[C@H]5C[C@H]5c5nc(-c6cc(Cl)ccc6-n6cc(Cl)nn6)cc(=O)n54)[nH]3)c2F)N1 [Embodiment 90]	0.63
Nc1ccc(-c2nc(F)c([C@@H]3[C@H]4C[C@H]4c4cc(-c5cc(Cl)ccc5-n5cnnn5)cc(=O)n43)[nH]2)c(F)n1 [Embodiment 36]	0.42
Nc1n[nH]c2cc(-c3[nH]c([C@@H]4[C@H]5C[C@H]5c5cc(-c6cc(Cl)ccc6-n6cc(C(F)(F)F)nn6)cc(=O)n54)nc3F)ccc12 [Embodiment 78]	0.86
Nc1noc2cc(-c3[nH]c([C@@H]4[C@H]5C[C@H]5c5cc(-c6cc(Cl)ccc6-n6cnnn6)cc(=O)n54)nc3F)ccc12 [Embodiment 29]	0.37
Nc1ccc(-c2[nH]c([C@@H]3[C@H]4C[C@H]4c4cc(-c5cc(Cl)ccc5-n5cnnn5)cc(=O)n43)nc2F)c(F)c1F [Embodiment 48]	3.65
Nc1n[nH]c2cc(-c3cnc([C@@H]4[C@H]5C[C@H]5c5cc(-c6cc(Cl)ccc6-n6cc(C(F)F)nn6)cc(=O)n54)[nH]3)ccc12 [Embodiment 82]	1.04
O=C1CCc2cc(-c3cnc([C@@H]4[C@H]5C[C@H]5c5cc(-c6cc(Cl)ccc6-n6cnnn6)cc(=O)n54)[nH]3)ccc2N1 [Embodiment 16]	0.63

Tested on: not listed separately
Assay: Pharmacokinetic experiment in rats, intravenous injection and oral administration
Type: in vivo
Conditions: male Sprague Dawley rats, intragastric administration 2 mg/kg vs intravenous 1 mg/kg
Description: In this experimental embodiment, in vivo pharmacokinetic evaluation was performed in rats by intravenous injection and oral administration.
Experimental methods and conditions: Male Sprague Dawley rats were given the test compound 1 mg/Kg (intravenous injection, solvent 5% DMSO/10% Solutol/85% Saline) and 2 mg/Kg (intragastric administration, solvent 0.5% MC) by respectively; 5 min, 15 min, 30 min, 1 hr, 2 hr, 4 hr, 6 hr, 8 hr, 24 hr after administration, blood was collected from submandibular vein, 0.20 mL was collected from each sample , and heparin sodium was used for anticoagulation. After collection, the sample was placed on ice, and the plasma was centrifuged to be measured within 1 hour. Plasma drug concentration in plasma was detected by liquid chromatography tandem mass spectrometry (LC/MS/MS) to calculate pharmacokinetic parameters.

F [%]	SMILES
28.4	O=C1CCc2c(ccc(-c3cnc([C@@H]4[C@H]5C[C@H]5c5nc(-c6cc(Cl)ccc6-n6cc(Cl)nn6)cc(=O)n54)[nH]3)c2F)N1 [Embodiment 90]
25.32	Nc1ccc(-c2nc(F)c([C@@H]3[C@H]4C[C@H]4c4cc(-c5cc(Cl)ccc5-n5cnnn5)cc(=O)n43)[nH]2)c(F)n1 [Embodiment 36]

Same assay, conditions: rat, plasma, po; male Sprague Dawley rats, intragastric administration 2 mg/kg

AUC(0-inf) [µg·h/mL]	Cmax [µg/mL]	half-life [h]	SMILES
17.6	1.83	3.16	O=C1CCc2c(ccc(-c3cnc([C@@H]4[C@H]5C[C@H]5c5nc(-c6cc(Cl)ccc6-n6cc(Cl)nn6)cc(=O)n54)[nH]3)c2F)N1 [Embodiment 90]
3.31	0.709	1.63	Nc1ccc(-c2nc(F)c([C@@H]3[C@H]4C[C@H]4c4cc(-c5cc(Cl)ccc5-n5cnnn5)cc(=O)n43)[nH]2)c(F)n1 [Embodiment 36]

Same assay, conditions: rat, plasma; male Sprague Dawley rats, intravenous administration 1 mg/kg

AUC(0-inf) [µg·h/mL]	clearance [L/h/kg]	half-life [h]	SMILES
26.9	0.0378	3.41	O=C1CCc2c(ccc(-c3cnc([C@@H]4[C@H]5C[C@H]5c5nc(-c6cc(Cl)ccc6-n6cc(Cl)nn6)cc(=O)n54)[nH]3)c2F)N1 [Embodiment 90]
6.53	0.16	1.65	Nc1ccc(-c2nc(F)c([C@@H]3[C@H]4C[C@H]4c4cc(-c5cc(Cl)ccc5-n5cnnn5)cc(=O)n43)[nH]2)c(F)n1 [Embodiment 36]

Same assay, conditions: rat, plasma; male Sprague Dawley rats, intravenous administration 1 mg/kg; read-out: Vz

Vd [L/kg]	SMILES
0.18	O=C1CCc2c(ccc(-c3cnc([C@@H]4[C@H]5C[C@H]5c5nc(-c6cc(Cl)ccc6-n6cc(Cl)nn6)cc(=O)n54)[nH]3)c2F)N1 [Embodiment 90]
0.349	Nc1ccc(-c2nc(F)c([C@@H]3[C@H]4C[C@H]4c4cc(-c5cc(Cl)ccc5-n5cnnn5)cc(=O)n43)[nH]2)c(F)n1 [Embodiment 36]
